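Interpolation was linear, between the two tested concentrations surrounding the appropriate level; five concentrations were tested over 48 hours in 96-well plates. Here, GI50 denotes the concentration required for 50% inhibition of growth.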 Activity calls are given as the source filed them. No stated cut-off is given here; in the data, active = GI50 up to about 1.1 µM and inactive = higher.
Tests used:
Assay in all cases: DTP human tumour cell line panel, 48 h
[1] = test system: SNB-75
[2] = test system: MDA-N
[3] = test system: MOLT-4
[4] = test system: SN12C
[5] = test system: LOX IMVI
[6] = test system: COLO 205
[7] = test system: HCT-15
[8] = test system: 786-0
[9] = test system: TK-10
[10] = test system: CCRF-CEM
[11] = test system: HOP-92
[12] = test system: NCI/ADR-RES
[13] = test system: SF-295
[14] = test system: OVCAR-5
[15] = test system: KM12
[16] = test system: Hs-578T
[17] = test system: RXF 393
[18] = test system: IGROV-1
[19] = test system: SNB-19
[20] = test system: SR

SMILES | GI50 [1] | GI50 [2] | GI50 [3] | GI50 [4] | GI50 [5] | GI50 [6] | GI50 [7] [µM] | GI50 [8] | GI50 [9] | GI50 [10] | GI50 [11] | GI50 [12] | GI50 [13] | GI50 [14] | GI50 [15] | GI50 [16] | GI50 [17] | GI50 [18] | GI50 [19] | GI50 [20]
CC(=O)OC1=c2ccccc2=C(O)C2C1C=NN2C(C)=O (stereo not drawn) | 36.7 µM (inactive) | > 100 µM (inactive) | > 100 µM (inactive) | > 100 µM (inactive) | > 100 µM (inactive) | 95.3 µM (inactive) | > 100 | > 100 µM (inactive) | > 100 µM (inactive) | > 100 µM (inactive) | > 100 µM (inactive) | > 100 µM (inactive) | > 100 µM (inactive) | > 100 µM (inactive) | > 100 µM (inactive) | 88.5 µM (inactive) | > 100 µM (inactive) | 99.3 µM (inactive) | > 100 µM (inactive) | 
O=c1[nH]nc(Cc2ccc(Cl)cc2)n1/N=C/c1c[nH]c2ccccc12 | > 100 µM (inactive) | > 100 µM (inactive) | > 100 µM (inactive) | > 100 µM (inactive) | > 100 µM (inactive) |  | > 100 | > 100 µM (inactive) | > 100 µM (inactive) | > 100 µM (inactive) | > 100 µM (inactive) | 82.8 µM (inactive) | > 100 µM (inactive) | > 100 µM (inactive) | > 100 µM (inactive) | > 100 µM (inactive) |  | > 100 µM (inactive) | > 100 µM (inactive) | > 100 µM (inactive)
O=C(O)c1cc(O)nc(S)n1 | 94.2 µM (inactive) | > 100 µM (inactive) | > 100 µM (inactive) | > 100 µM (inactive) | > 100 µM (inactive) | > 100 µM (inactive) | > 100 | > 100 µM (inactive) | > 100 µM (inactive) | > 100 µM (inactive) | > 100 µM (inactive) | > 100 µM (inactive) | > 100 µM (inactive) | > 100 µM (inactive) | > 100 µM (inactive) | > 100 µM (inactive) | > 100 µM (inactive) | > 100 µM (inactive) | > 100 µM (inactive) | 
O=S(=O)(O)c1ccc(NN(c2c(O)ccc3ccccc23)S(=O)(=O)O)cc1 |  | > 100 µM (inactive) | > 100 µM (inactive) | > 100 µM (inactive) | > 100 µM (inactive) | > 100 µM (inactive) | > 100 | > 100 µM (inactive) | > 100 µM (inactive) | > 100 µM (inactive) |  | > 100 µM (inactive) | > 100 µM (inactive) | > 100 µM (inactive) | > 100 µM (inactive) | > 100 µM (inactive) |  | > 100 µM (inactive) | > 100 µM (inactive) | > 100 µM (inactive)

— ChEMBL document CHEMBL1201862, “PubChem BioAssay data set” (2004)
